In patent publication US20230139826A1 (NONO INC., priority 2020, published 2023):
Residues, ends and D or L forms follow the SMILES beside them.

How the values were obtained:
acute ischemic stroke = assay: ESCAPE-NA1 trial: treatment emergent serious adverse events; type: in vivo, human
Description: The primary outcome was good outcome as defined by a score of 0-2 on the modified Rankin scale (mRS) (range, 0 [no symptoms] to 6 [death]) for the assessment of neurologic functional disability^2 assessed in person or, if an in-person visit was not possible, by telephone, at 90 days after randomization by personnel certified in the scoring of the mRS. Secondary efficacy outcomes were neurological outcome as defined by the NIHSS of 0-2, functional independence in activities of daily living as defined by a Barthel Index score of ≥95, excellent functional outcome as defined by a score of 0-1 on the mRS and mortality rates. Tertiary outcomes included assessments of stroke volumes on 24-hour imaging (MR or CT brain). Prespecified safety outcomes were all serious adverse events and mortality. Imaging interpretation was conducted at a central core laboratory and clinical data were verified by independent monitors. Infarct volumes were measured by summation of manual planimetric demarcation of infarct on axial imaging (636/1099 (57.9%) on CT and 463/1099 (42.1%) on MRI).
The safety population included all patients who received any amount of study drug (n=1101). There were no differences in important safety outcomes. (Table 3).

plasmin = plasmin (Homo sapiens, UniProt P00747)
Protocol: (A) LC/MS spectrum of nerinetide after incubation with plasmin in PBS. 10 uL aliquots of nerinetide (18 mg/mL) and plasmin (1 mg/mL) were incubated in 500 uL tubes of phosphate-buffered saline at 37 C for 5 min and the reaction stopped by cooling to −80 C until tested. […] (B, C) In-vitro effect of rt-PA on nerinetide content in rat (B) and human (C) plasma. Nerinetide was spiked into the plasma samples at t=0 at a concentration of 65 ug/ml, whereas alteplase (rt-PA) was administered as a 60 min infusion at the indicated concentration (D, E) In-vivo effect of the simultaneous administration of nerinetide and rt-PA on Cmax (D) and AUC (E) in the rat. The nerinetide bolus and alteplase (60 min infusion) were started simultaneously through two separate intravenous lines. Symbols represent mean±SD. […] […] (SEQ ID NO:3) (Full-length NA-1, undigested), […] […] (SEQ ID NO:8), […] […] (SEQ ID NO:10).
Direct ELISA of the indicated biotinylated peptides to the PDZ2 domain of PSD-95. […] Symbols indicate the mean±SD of triplicate experiments. […] (B). […] E,F. Time course of nerinetide or D-TAT-L-2B9c content in rat plasma (E) and human plasma (F) during a challenge with tenecteplase (TNK; 37.5 ug/ml or 6.25 ug/ml, respectively). […] (repeated measures two-way ANOVA with a post hoc Sidak's multiple comparisons test, *P<0.01). Symbols are means±SD. […]

[1] = system: embolic middle cerebral artery occlusion (eMCAO); assay: Rat embolic middle cerebral artery occlusion model with alteplase reperfusion; type: in vivo, Sprague-Dawley rats
Protocol: To test this, male Sprague-Dawley rats (10-12 weeks old; 270-310 g; Charles River, Montreal, QC, Canada) were subjected to embolic middle cerebral artery occlusion (eMCAO), produced by the introduction of an autologous blood thrombus into the middle cerebral artery. Reperfusion was achieved by treatment with intravenous alteplase at a total dose of 5.4 mg/kg beginning at 90 minutes after ischemia onset. Alteplase was administered using the human injection protocol in which 10% of the total dose is given as a bolus, with the remainder 90% of the dose being given over a 60-minute infusion. […] This dose was chosen because in pilot studies, higher doses of alteplase (10× human dose) produced unacceptable mortality rates due to hemorrhagic conversions of strokes. Nerinetide was administered either 30 minutes prior to, or concurrently with, the start of the alteplase administration (FIG. 5A) at a dose of 7.6 mg/kg. […] Infarct volumes, hemispheric swelling and neurological scores were evaluated at 24 hours.
Male Sprague-Dawley rats were subjected to eMCAO as already described. Nerinetide (7.6 mg/kg) or D-Tat-L-2B9c (7.6 mg/kg) were given as bolus injections at 60 minutes. Alteplase (5.4 mg/kg over 60 min) was also started at 60 min after eMCAO, concurrently with the active agent that inhibits PSD-95. Neurological scoring, infarct volume, and hemispheric swelling were assessed at 24 hours (FIG. 8A).
The studies were designed to have 80% power to detect a 40% absolute difference between control and treatment groups at p=0.05. Animal randomization, drug allocation and treatment drug preparation were performed by a research associate not directly involved with surgical or outcome assessment. Nerinetide and D-Tat-L-2B9c were freshly prepared at a concentration of 7.6 mg/mL in 500 uL aliquots. Alteplase was prepared from lyophilized drug and, like matching placebo, stored in identical glass tubes. Drugs were kept at 4° C. until 10 minutes prior to use. The surgeon and the investigators responsible for the surgery, stroke volume measurement, behavioural assessment and statistical analysis were blinded to treatment allocation.

[2] = In-vitro peptide degradation assay in rat plasma with rt-PA or TNK
Protocol: To determine nerinetide stability in the presence of rt-PA in plasma, we use an in-vitro peptide content analysis by HPLC. In brief, Nerinetide or D-Tat-L-2B9c were spiked into rat or human plasma at a concentration of 65 ug/ml. rt-PA was added after the baseline time-point was collected, at the specified concentrations. rt-PA administration followed the clinical dosing approach [10% bolus dose followed by 60-mins infusion (90% of the dose)], using a Harvard apparatus pump. Sample collection following IV bolus was performed at 5 min, 15 min, 30 min and 45 min post-dose. At each time point, approximately 100 uL of plasma was collected from each vial using a fresh syringe. Plasma was then collected and stored at -80° C. until analyzed.
Nerinetide or D-Tat-L2B9c was extracted by precipitation with 1M perchloric acid. All analyses were performed on an Agilent 1260 Infinity Quaternary LC System (Agilent Technologies, Santa Clara, Calif., USA) and on a 25 cm [YMAA12S052546WT] C-18 RP-HPLC column (Agilent Technologies, Santa Clara, Calif., USA). The column was equilibrated with 10% acetonitrile with 0.1% TFA at 40° C. The eluent flow was 1.5 ml/min (gradient from 10% to 35% acetonitrile in 0.1% TFA) The UV trace was recorded at 220 nm. Concentrations of nerinetide or D-Tat-L-2B9c were derived from calibration standards obtained by spiking the agent into plasma.

[3] = 30-minute dose separation between nerinetide and alteplase

Chain of plasmin (P00747 581-810 limits assumed, species assumed): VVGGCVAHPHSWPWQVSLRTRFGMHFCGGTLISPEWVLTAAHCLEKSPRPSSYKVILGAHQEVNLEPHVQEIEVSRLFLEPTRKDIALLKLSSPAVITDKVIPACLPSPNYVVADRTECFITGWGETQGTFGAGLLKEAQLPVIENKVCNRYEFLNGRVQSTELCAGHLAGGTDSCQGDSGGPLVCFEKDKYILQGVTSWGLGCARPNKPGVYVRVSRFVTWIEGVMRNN
Chain of plasmin (P00747 97-580 partner limits assumed, species assumed): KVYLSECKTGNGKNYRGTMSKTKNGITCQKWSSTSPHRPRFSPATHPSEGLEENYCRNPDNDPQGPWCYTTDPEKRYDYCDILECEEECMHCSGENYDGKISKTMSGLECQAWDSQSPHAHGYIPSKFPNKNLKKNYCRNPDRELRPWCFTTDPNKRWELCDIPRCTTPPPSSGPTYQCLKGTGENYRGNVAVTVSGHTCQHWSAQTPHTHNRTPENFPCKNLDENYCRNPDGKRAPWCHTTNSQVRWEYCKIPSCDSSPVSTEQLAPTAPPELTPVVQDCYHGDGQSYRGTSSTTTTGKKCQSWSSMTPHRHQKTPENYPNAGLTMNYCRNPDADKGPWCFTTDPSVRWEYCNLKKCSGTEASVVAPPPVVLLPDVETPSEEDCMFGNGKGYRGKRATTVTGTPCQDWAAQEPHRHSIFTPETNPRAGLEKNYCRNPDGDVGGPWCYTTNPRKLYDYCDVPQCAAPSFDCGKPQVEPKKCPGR

SMILES: CC[C@H](C)[C@H](NC(=O)[C@H](CO)NC(=O)[C@H](CO)NC(=O)[C@H](CC(C)C)NC(=O)[C@H](CCCCN)NC(=O)[C@H](CCCN=C(N)N)NC(=O)[C@H](CCCN=C(N)N)NC(=O)[C@H](CCCN=C(N)N)NC(=O)[C@H](CCC(N)=O)NC(=O)[C@H](CCCN=C(N)N)NC(=O)[C@H](CCCN=C(N)N)NC(=O)[C@H](CCCCN)NC(=O)[C@H](CCCCN)NC(=O)[C@H](CCCN=C(N)N)NC(=O)CNC(=O)[C@@H](N)Cc1ccc(O)cc1)C(=O)N[C@@H](CCC(=O)O)C(=O)N[C@@H](CO)C(=O)N[C@@H](CC(=O)O)C(=O)N[C@H](C(=O)O)C(C)C [Nerinetide] (H-YGRKKRRQRRRKLSSIESDV-OH)
- Angioedema, patients number (proportion) (acute ischemic stroke; nerinetide n = 547): 1 (0.2%)
- Congestive cardiac failure, patients number (proportion) (acute ischemic stroke; nerinetide n = 547): 9 (1.6%)
- Deep vein thrombosis/pulmonary embolism, patients number (proportion) (acute ischemic stroke; nerinetide n = 547): 3 (0.5%)
- Hives/Urticaria/Pruritis, number of patients (acute ischemic stroke; nerinetide n = 547): 0
- Hypotension, patients number (proportion) (acute ischemic stroke; nerinetide n = 547): 7 (1.3%)
- Ischaemic stroke (new onset/recurrent), patients number (proportion) (acute ischemic stroke; nerinetide n = 547): 18 (3.3%)
- Pneumonia, patients number (proportion) (acute ischemic stroke; nerinetide n = 547): 25 (4.6%)
- Stroke-in-evolution (progression), patients number (proportion) (acute ischemic stroke; nerinetide n = 547): 36 (6.6%)
- Symptomatic ICH, patients number (proportion) (acute ischemic stroke; nerinetide n = 547): 19 (3.5%)
- Urinary tract infection, patients number (proportion) (acute ischemic stroke; nerinetide n = 547): 8 (1.5%)
- Angioedema, RR (95% CI) unadjusted (acute ischemic stroke; nerinetide vs placebo): 1.01 (0.06-16.1)
- Any serious adverse Event, RR (95% CI) unadjusted (acute ischemic stroke; nerinetide vs placebo): 0.92 (0.79-1.09)
- Congestive cardiac failure, RR (95% CI) unadjusted (acute ischemic stroke; nerinetide vs placebo): 2.28 (0.71-7.36)
- Deep vein thrombosis/pulmonary embolism, RR (95% CI) unadjusted (acute ischemic stroke; nerinetide vs placebo): 0.38 (0.1-1.42)
- Hypotension, RR (95% CI) unadjusted (acute ischemic stroke; nerinetide vs placebo): 7.09 (0.88-57.4)
- Ischaemic stroke (new onset/recurrent), RR (95% CI) unadjusted (acute ischemic stroke; nerinetide vs placebo): 0.91 (0.49-1.70)
- Pneumonia, RR (95% CI) unadjusted (acute ischemic stroke; nerinetide vs placebo): 1.49 (0.81-2.73)
- Stroke-in-evolution (progression), RR (95% CI) unadjusted (acute ischemic stroke; nerinetide vs placebo): 0.85 (0.55-1.30)
- Symptomatic ICH, RR (95% CI) unadjusted (acute ischemic stroke; nerinetide vs placebo): 0.80 (0.44-1.45)
- Urinary tract infection, RR (95% CI) unadjusted (acute ischemic stroke; nerinetide vs placebo): 1.15 (0.42-3.17)
- rates of adverse events compared with placebo (acute ischemic stroke; patients treated with nerinetide): no significant differences
- Any serious adverse Event, patients number (proportion) (acute ischemic stroke; safety population, nerinetide n = 547): 181 (33.1%)
- stability alone in phosphate buffered saline (plasmin): stable
- hemispheric swelling [1, 3]: reducing hemispheric swelling
- neurological scores [1, 3]: improving neurological scores
- reduction of infarction volume ([1]; nerinetide alone 7.6 mg/kg, 60 minutes after eMCAO, 24 hours): 59.2%
- infarction volume ([1]; nerinetide alone 60 minutes after eMCAO (FIG. 5B), control 427±27): 175±40 mm^3
- infarction volume ([1]; nerinetide alone 60 minutes after eMCAO, absence of alteplase (FIG. 8B), control 458±39): 296±66 mm^3
- infarct volume reduction ([1]; nerinetide at 60 minutes followed by alteplase 30 minutes later): 70%
- effect on infarction volume when given concurrently with alteplase ([1]; peptide 7.6 mg/kg and alteplase 5.4 mg/kg both at 60 min after eMCAO): eliminated completely
- nerinetide content in rat plasma on addition of alteplase ([2]; 65 ug/ml nerinetide, 37° C., alteplase over 60 minutes): reduced the nerinetide content in rat plasma in a concentration-dependent manner
- elimination in rat plasma with tenecteplase (TNK) ([2]; TNK 37.5 ug/ml): rapid elimination
- stability alone in rat plasma ([2]; absence of alteplase): stable
- degradation in rat plasma with alteplase ([2]; rt-PA 135 ug/ml): rapid degradation
